Results on one compound are retold here after ChEMBL document CHEMBL1136460, “Novel oxazolidinone-quinolone hybrid antimicrobials” (Bioorg Med Chem Lett, 2003).

One experiment deals with Moraxella catarrhalis. As to the kind of experiment: Antibacterial activity against Moraxella catarrhalis (MC1002). In kind it is functional.
A further experiment relates to Haemophilus influenzae. Nature of the experiment: Antibacterial activity against Haemophilus influenzae (HI1008). Type of experiment: functional.

Converted amounts (≈) assume the structure as drawn.

`O=C(O)c1cn(C2CC2)c2cc(N3CCNCC3)c(F)cc2c1=O` [CIPROFLOXACIN]: the values for the MIC against Moraxella catarrhalis and with Haemophilus influenzae were 0.03 µg/mL (≈ 0.0905 µM) and at most 0.06 µg/mL, respectively.
